Measured values from US4145557A, “(Phenoxyphenyl) alkyl acetates, propionates, and carbamates” (Eli Lilly and Company, priority 1977, dated 1979).
Counter-ions that a name gives are not always drawn. Like-named read-outs stand apart in the source and are kept apart here.

What was measured:
[1] = tested on: ultraviolet erythema in guinea pigs; experiment: Erythema blocking assay (anti-inflammatory activity, ultraviolet erythema, oral); type: in vivo, Albino guinea pigs; settings: Cavia porcellus, read-out: Erythema Blocking Assay Oral ED50
Description: Various compounds within the scope of this invention were tested for anti-inflammatory activity in an erythema blocking assay which involved the following test procedure.
A modification of the Winder et al. (1958) method [Winder, C. V., Wax, J., Burr, V. and Posiere, C. E.: "A Study of Pharmacological Influences on Ultraviolet Erythema in Guinea Pigs", Arch. Int. Pharmacodyn., 116, 261, 1958] was used to measure anti-inflammatory activity of these compounds. Albino guinea pigs of either sex weighing 225-300 grams were shaved on the back and chemically (NAIR®, Lotion Hair Remover, Carter Products, N. Y., N. Y.) depitated, 18-20 hours before exposure to ultraviolet light. The animals were fasted overnight. Immediately after the guinea pigs were treated with a test compound, gummed notebook paper reinforcements were placed on their backs, and they were exposed to a high intensity ultraviolet light for seven seconds. The ultraviolet light source was a Hanovia Lamp (Kromayer-Model 10) which was placed in contact with the skin of the guinea pig's back. After exposure, the reinforcements were removed and their backs wiped clean with a water soaked gauze sponge. The unexposed area under the reinforcements provided an area of contrast for grading the erythema. The animals were randomized and placed in clear plastic partitioned holders 10 × 20 cm. wide and 15 cm. high. Beginning one hour after exposure and thereafter at half-hour intervals for another one and one-half hours, the degree of resulting erythema was graded by an arbitrary scoring system based upon the degree of contrast and redness formed. Anti-inflammatory agents delay the development of the erythema and therefore have their greatest effect at the initial grading periods. Therefore, the scores were weighed by a factor of 4, 3, 2, and 1 at the 1.0-, 1.5-, 2.0-, and 2.5-hour scoring times, respectively. The erythema was graded as follows:
Score Appearance of Exposed Area
______________________________________
0 No redness and no contrast
1 Slight redness with a faint reinforcement outline
2 Slight to moderate redness with a distinct outline
3 Marked redness with a distinct circular outline
Total scores from each treatment group of five or six guinea pigs were compared to the control treatment and the percent inhibition calculated as follows:
100 × Control - Treatment/Control = Percent Inhibition
Test compounds were prepared in a suspension of 1 percent methylcellulose in water and administered orally. Guinea pigs were treated orally with 1.0 cc./kg. of the suspensions. Control animals received 1.0 cc./kg. of a 1 percent methylcellulose suspension. The dose that produces a 50 percent inhibition of the erythemic response (ED50) was calculated. The ED50 results in (mg./kg.) are recorded in the following table: […]

[2] = pK'a determination; type: physicochemical
[3] = tested on: acetic acid-induced writhing in mice; experiment: Analgesic writhing test (inhibition of acetic acid-induced writhing); type: in vivo, Standard strain albino male mice; settings: Mus musculus, sc, read-out: Analgesic Writhing Test Subcutaneous ED50
Description: A method similar to that reported by Koster, R., et al., "Acetic Acid for Analgesic Screening" Fed.
Standard strain albino male mice, weighing 16-18 grams, were administered the treatments either subcutaneously or by gastric lavage. At various times after treatment, writhing was induced by the intraperitoneal administration of 60 mg./kg. of acetic acid (0.6 percent). Each treatment group consisted of 6 mice. The total number of writhes for the treatment group were counted in a 10-minute observation period starting 5 minutes after the acetic acid administration. The treatment totals were compared to controls and a percent inhibition calculated as follows:
Percent Inhibition = 100 - (Treatment total/Control Total × 100)
The ED50 values in the table which follows represents the doses in mg. of compound/kg. of body weight which will produce a 50 percent inhibition of the frequency of writhing.

[4] = oral, guinea pigs, 50 percent inhibition of erythemic response, single dose in 1 percent methylcellulose, scored 1.0-2.5 hours
[5] = subcutaneous, mice, 50 percent inhibition of frequency of writhing, 60 mg./kg. acetic acid intraperitoneal

SMILES: CC(CN(C)CC1CC1)c1cccc(Oc2ccccc2)c1 (stereo not drawn) [drawing 23]
- ED50 [1, 4]: 3 mg/kg

SMILES: CC(C(=O)NO)c1cccc(Oc2ccccc2)c1 (stereo not drawn)
- ED50 [1, 4]: 2 mg/kg

SMILES: CC(c1cccc(Oc2ccccc2)c1)c1nnn[nH]1 (stereo not drawn) [5-(α-Methyl-3-phenoxybenzyl)-1H-tetrazole]
- pKa [2]: 5.8

SMILES: CC(CN(C)CC1CC1)c1cccc(Oc2ccccc2)c1 (stereo not drawn) [N-Methyl-N-cyclopropylmethyl-2-(3-phenoxyphenyl)propylamine hydrochloride]
- pKa [2]: 8.3

SMILES: CC(CN(C)C1CC1)c1cccc(Oc2ccccc2)c1 (stereo not drawn) [drawing 22]
- ED50 [1, 4]: 3 mg/kg

SMILES: CCC(CNC)c1cccc(Oc2ccccc2)c1 (stereo not drawn)
- ED50 [3, 5]: 20 mg/kg

SMILES: CC(CN(C)C)c1cccc(Oc2ccccc2)c1 (stereo not drawn) [drawing 19]
- ED50 [1, 4]: 8 mg/kg

SMILES: CC(C(=O)NCC(=O)O)c1cccc(Oc2ccccc2)c1 (stereo not drawn)
- ED50 [1, 4]: 5 mg/kg

SMILES: CC(CNC1CC1)c1cccc(Oc2ccccc2)c1 (stereo not drawn) [N-Cyclopropyl-2-(3-phenoxyphenyl)propylamine hydrochloride]
- pKa [2]: 7.9

SMILES: CC(=O)OCC(C)c1cccc(Oc2ccccc2)c1 (stereo not drawn)
- ED50 [1, 4]: 8 mg/kg

SMILES: CC(C(N)=O)c1cccc(Oc2ccccc2)c1 (stereo not drawn)
- ED50 [1, 4]: 3 mg/kg

SMILES: CC(C)=CCN(C)CC(C)c1cccc(Oc2ccccc2)c1 (stereo not drawn) [N-Methyl-N-(3-methylbut-2-enyl)-2-(3-phenoxyphenyl)propylamine hydrochloride]
- pKa [2]: 8.5

SMILES: CC(CN)c1cccc(Oc2ccccc2)c1 (stereo not drawn) [drawing 42]
- ED50 [3, 5]: 20 mg/kg

SMILES: CC(CN(C)CC1CC1)c1cccc(Oc2ccccc2)c1 (stereo not drawn) [drawing 46]
- ED50 [3, 5]: < 50 mg/kg

SMILES: CC(CNCC1CC1)c1cccc(Oc2ccccc2)c1 (stereo not drawn)
- ED50 [1, 4]: 20 mg/kg

SMILES: CCC(=O)OCC(C)c1cccc(Oc2ccccc2)c1 (stereo not drawn)
- ED50 [1, 4]: 10 mg/kg

SMILES: NCCc1cccc(Oc2ccccc2)c1 [CH2 CH2 NH2 . HCl]
- ED50 [1, 4]: 75 mg/kg
- ED50 [3]: 4 mg/kg

SMILES: CC(CCN)c1cccc(Oc2ccccc2)c1 (stereo not drawn) [3-(3-Phenoxyphenyl)butylamine hydrochloride]
- pKa [2]: 10

SMILES: CC(CO)c1cccc(Oc2ccccc2)c1 (stereo not drawn)
- ED50 [1, 4]: 2 mg/kg

SMILES: CC(=O)Oc1ccccc1C(=O)O [A.S.A., reference compound]
- ED50 ([1]; po): 50 mg/kg
- ED50 [3]: 20 mg/kg

SMILES: CN(C)CCc1cccc(Oc2ccccc2)c1.Cl [N,N-Dimethyl-2-(3-phenoxyphenyl)ethylamine hydrochloride]
- pKa [2]: 8.5
- ED50 ([1]; po): 7 mg/kg

SMILES: C=CCNCC(C)c1cccc(Oc2ccccc2)c1 (stereo not drawn) [N-Allyl-2-(3-phenoxyphenyl)propylamine hydrochloride]
- pKa [2]: 8.5

SMILES: CNCCC(C)c1cccc(Oc2ccccc2)c1 (stereo not drawn) [drawing 30]
- ED50 [1, 4]: 5 mg/kg

SMILES: CC(CNC1CC1)c1cccc(Oc2ccccc2)c1 (stereo not drawn) [drawing 20]
- ED50 [1, 4]: 9 mg/kg

SMILES: CC(c1cccc(Oc2ccccc2)c1)c1nnn[nH]1 (stereo not drawn) [drawing 36]
- ED50 [1, 4]: 10 mg/kg

SMILES: C=CCN(C)CC(C)c1cccc(Oc2ccccc2)c1 (stereo not drawn) [drawing 25]
- ED50 [1, 4]: 3 mg/kg

SMILES: C=CCNCC(C)c1cccc(Oc2ccccc2)c1 (stereo not drawn) [drawing 24]
- ED50 [1, 4]: 10 mg/kg

SMILES: CC(C)=CCN(C)CC(C)c1cccc(Oc2ccccc2)c1 (stereo not drawn) [drawing 26]
- ED50 [1, 4]: 5 mg/kg

SMILES: CNCCC(C)c1cccc(Oc2ccccc2)c1 (stereo not drawn) [N-Methyl-3-(3-phenoxyphenyl)butylamine hydrochloride]
- pKa [2]: 10

SMILES: C=CCN(C)CC(C)c1cccc(Oc2ccccc2)c1 (stereo not drawn) [N-Methyl-N-allyl-2-(3-phenoxyphenyl)propylamine hydrochloride]
- pKa [2]: 7.6

SMILES: CC(CN(C)C)c1cccc(Oc2ccccc2)c1 (stereo not drawn) [drawing 44]
- ED50 [3, 5]: 10 mg/kg

SMILES: CC(CN(C)CCc1ccccc1)c1cccc(Oc2ccccc2)c1 (stereo not drawn) [N-Methyl-N-(2-phenylethyl)-2-(3-phenoxyphenyl)propylamine hydrochloride]
- pKa [2]: 7.7

SMILES: CNC(=O)OCC(C)c1cccc(Oc2ccccc2)c1 (stereo not drawn)
- ED50 [1, 4]: 40 mg/kg

SMILES: CC(CCN)c1cccc(Oc2ccccc2)c1 (stereo not drawn) [drawing 29]
- ED50 [1, 4]: 2 mg/kg

SMILES: O=C(O)Cc1cccc(Oc2ccccc2)c1 [2-(3-phenoxyphenyl)acetic acid]
- pKa [2]: 6.9

SMILES: CC(CN(C)CCc1ccccc1)c1cccc(Oc2ccccc2)c1 (stereo not drawn) [drawing 28]
- ED50 [1, 4]: 5 mg/kg

SMILES: CC(CN)c1cccc(Oc2ccccc2)c1 (stereo not drawn) [drawing 17]
- ED50 [1, 4]: 1 mg/kg

SMILES: CC(C(=O)N(C)C)c1cccc(Oc2ccccc2)c1 (stereo not drawn)
- ED50 [1, 4]: 25 mg/kg

SMILES: CNCC(C)c1cccc(Oc2ccccc2)c1 (stereo not drawn) [drawing 18]
- ED50 [1, 4]: 1 mg/kg

SMILES: CNC(=O)C(C)c1cccc(Oc2ccccc2)c1 (stereo not drawn)
- ED50 [1, 4]: 30 mg/kg

SMILES: CC(CN(C)C1CC1)c1cccc(Oc2ccccc2)c1 (stereo not drawn) [N-Methyl-N-cyclopropyl-2-(3-phenoxyphenyl)propylamine hydrochloride]
- pKa [2]: 6.9

SMILES: CNCCc1cccc(Oc2ccccc2)c1.Cl [N-Methyl-2-(3-phenoxyphenyl)ethylamine hydrochloride]
- pKa [2]: 9.7
- ED50 ([1]; po): 10 mg/kg
- ED50 [3]: 25 mg/kg

SMILES: CC(C(=O)O)c1cccc(Oc2ccccc2)c1 (stereo not drawn) [2-(3-phenoxyphenyl)propionic acid]
- pKa [2]: 7.3

SMILES: CC(CNCCc1ccccc1)c1cccc(Oc2ccccc2)c1 (stereo not drawn)
- ED50 [1, 4]: 15 mg/kg

SMILES: CN(C)CCc1cccc(Oc2ccccc2)c1 [drawing 41]
- ED50 [3]: 35 mg/kg

SMILES: CNCC(C)c1cccc(Oc2ccccc2)c1 (stereo not drawn) [drawing 43]
- ED50 [3, 5]: 20 mg/kg
